Source: patent US8048638B2, “Biomarkers of liver injury” (priority 2005, dated 2011)

Assays:
Rats [1] = assay: Plasma ASS and ALT accumulation after carbon tetrachloride injection (chlorinated hydrocarbon liver injury); type: in vivo, rat; conditions: for Plasma ASS increase relative to control (FIG. 30A): rat model; for Plasma ALT accumulation / Plasma ASS increase compared to controls: rats; for Plasma ASS increase compared to controls: 0.5 ml/kg CCL4 in vegetable oil
Experimental: Rats (n=6) were injected with 0.5 ml/kg of carbon tetrachloride (CCL4) in vegetable oil. Plasma arginosuccinate synthetase (ASS) and alanine transaminase (ALT) accumulation was measured 1 hr and 24 hr after injection. ASS increased over 15-fold compared to controls after 1 hr and over 50-fold compared to controls after 24 hr (p<0.0001), as shown in FIG. 30A.

Rats [2] = conditions: Western blot
Experimental: The analysis shown in Table 1, is performed by Western blot using antibody available through various sources. Typically, 25 μg protein are loaded with two identical sets of 5 samples, separated in 4-20% polyacrylamide gel mini-slabs, and transferred onto PVDF membrane. The membrane is cut in 2 pieces, blocked, probed with two different antibodies, visualized using ECL Plus Kit (Pierce, Inc) and scanned. The membranes are stripped using stripping buffer and re-probed with other two antibody. After visualizing the bands with EDCL Plus Kit and scanning, membranes are stripped again, probed with aII-spectrin antibody and developed using alkaline phosphatase detection method. For accurate assessment of molecular mass of developed proteins, two sets of protein standards are added and developed simultaneously (Magic Markers, Invitrogen, Inc).
Blood is collected from rat heart at the end of experimental procedures. Plasma is obtained from K-EDTA preserved blood by centrifugation. 20 μl of plasma or serum is mixed with 180 μl of RIPA buffer (with proteases inhibitors), vortexed, incubated on ice for 30 min and centrifuged. Supernatants are removed, aliquots mixed with sample buffer 1:1, heated and loaded onto gel.

Rats [3] = assay: Serum ASS, CPS-1, SULT2A1 and ALT levels after repeated MDMA injections (Ecstasy liver injury); type: in vivo, rat; conditions: for Serum ASS compared to control serum levels / Serum SULT2A1 compared to control serum levels: i.p.; for Serum ASS compared to control serum levels: 10 mg/kg injections at 1.5 hr intervals
Experimental: Serum arginosuccinate synthetase (ASS), carbamoylphosphate synthase-1 (CPS-1) and sulfur transferase isoform A1 (SULT2A1) levels were measured after repeated injections of 10 mg/kg of methylenedioxyacetamine (MDMA) at 1.5 hr intervals.

## ClC(Cl)(Cl)Cl [carbon tetrachloride]
Rats [1]; 1 hr after injection
  Plasma ASS increase relative to control (FIG. 30A): 15 times
  Plasma ASS increase compared to controls: over 15 fold
Rats [1]; 24 hr post injection
  Plasma ASS increase relative to control (FIG. 30A): 50 times
Rats [1]; 0.5 ml/kg CCL4, 1 hr after injection
  Plasma ALT accumulation: did not increase significantly
Rats [1]; 0.5 ml/kg CCL4, 24 hr after injection, p=0.041
  Plasma ALT accumulation: significant increase
Rats [1]; 24 hr after injection, p<0.0001
  Plasma ASS increase compared to controls: over 50 fold

## CCO [alcohol]
Rats [2]; chronic alcohol rats
  ALT in plasma: increased
Rats [2]; rats chronically treated with alcohol
  GST-BB in plasma: significant increase
Rats [2]; rats with chronic alcoholic administration
  Intact ASS protein (46 kDa) in plasma: absent

## CNC(C)Cc1ccc2c(c1)OCO2 (stereo not drawn) [MDMA, methylenedioxyacetamine]
Rats [3]; total 20 mg/kg, p<0.01
  Serum ASS compared to control serum levels: significant increase
Rats [3]; total 40 mg/kg, p<0.001
  Serum ASS compared to control serum levels: significant increase
Rats [3]; total 20 mg/kg, p<0.001
  Serum SULT2A1 compared to control serum levels: significant increase
Rats [3]; total 40 mg/kg, p<0.0001
  Serum SULT2A1 compared to control serum levels: significant increase
Rats [3]; repeated i.p. injection, total 40 mg/kg, 24 hr after last injection, PAGE
  Serum carbamoylphosphate synthase-1 (CPS-1) levels: increased levels
Rats [3]; repeated i.p. injections of 10 mg/kg
  Alanine transferase (ALT): No increase
